The record followed here is patent EP0660840B1 (priority 1992, dated 1994).

Test [1] deals with DOCA-salt hypertensive rats. Nature of the test: Antihypertensive effect in DOCA-salt hypertensive rats. The note with it: 10 mg/Kg p.o., in PEG 400; DOCA-salt hypertensive rat model. The format is in vivo. The method, then: The antihypertensive effect can be determined in desoxycorticosterone acetate (DOCA)-salt hypertensive rats.
DOCA-salt hypertensive rats (280-380 g) are prepared by the standard method. Rats underwent a unilateral nephrectomy and one week later are implanted with silastic pellets containing 100 mg/kg of DOCA. The rats are maintained on 1% NaCl/0.2% KCI drinking water for three to five weeks until sustained hypertension is established. The antihypertensive activity is evaluated at this time.
Two days before an experiment, the rats are anesthetized with methoxyflurane and instrumented with catheters in the femoral artery to measure arterial blood pressure. Forty-eight hours later, baseline arterial pressure and heart rate are recorded during a 1 hour period. The test compound or vehicle is then administered and the same cardiovascular parameters are monitored for an additional 5 hours.

For a further test, the system named is plasma ANF. Put plainly: Effect on rat plasma ANF concentration during continuous ANF infusion (radioimmunoassay). The note with it: about 10 mg/kg p.o., in 10% ethanol/polyethylene glycol 400; conscious rats infused with ANF 450 ng/kg/min i.v. Type of test: in vivo, Male Sprague-Dawley rats. As to the method: The effect of the compounds of the invention on rat plasma ANF concentration can be determined as follows:
Male Sprague-Dawley rats (275-390 g) are anesthetized with ketamine (150 mg/kg)/acepromazine (10%) and instrumented with catheters in the femoral artery and vein to obtain blood samples and infuse ANF, respectively. The rats are tethered with a swivel system and are allowed to recover for 24 hours before being studied in the conscious, unrestrained state.
In this assay, plasma ANF levels are determined in the presence and absence of NEP inhibition. On the day of study, all rats are infused continuously with ANF at 450 ng/kg/min. i.v. for the entire 5 hours of the experiment. Sixty minutes after beginning the infusion, blood samples for baseline ANF measurements are obtained (time 0) and the rats are then randomly divided into groups treated with the test compound or vehicle. Additional blood samples are taken 30, 60, 120, 180 and 240 minutes after administration of the test compound.
Plasma concentrations are determined by a specific radioimmunoassay. […] The supernatant is decanted and the pellets counted in a gamma counter. […] Plasma ANF levels are expressed as a percent of those measured in vehicle-treated animals which received ANF alone (450 ng/kg/min i.v.).

Consider `O=P(CN[C@@H](Cc1ccc(-c2ccccc2)cc1)c1nnn[nH]1)(Oc1ccccc1)Oc1ccccc1` [Example 3, (S)-[2-Biphenyl-4-yl-1-(1H-tetrazol-5-yl)-ethylamino]-methylphosphonic acid diphenyl ester], for which the blood pressure result in test [1] is “significant reduction”. Also, the “plasma ANF levels” value in the test with plasma ANF is listed as “significant increases”.
